pIC50: −log10 of the molar value.

One may read the pIC50 as −log10 of the IC50, conventionally taken in molar units.

Sequence of IRAK4 (Q9NWZ3 whole entry, species assumed): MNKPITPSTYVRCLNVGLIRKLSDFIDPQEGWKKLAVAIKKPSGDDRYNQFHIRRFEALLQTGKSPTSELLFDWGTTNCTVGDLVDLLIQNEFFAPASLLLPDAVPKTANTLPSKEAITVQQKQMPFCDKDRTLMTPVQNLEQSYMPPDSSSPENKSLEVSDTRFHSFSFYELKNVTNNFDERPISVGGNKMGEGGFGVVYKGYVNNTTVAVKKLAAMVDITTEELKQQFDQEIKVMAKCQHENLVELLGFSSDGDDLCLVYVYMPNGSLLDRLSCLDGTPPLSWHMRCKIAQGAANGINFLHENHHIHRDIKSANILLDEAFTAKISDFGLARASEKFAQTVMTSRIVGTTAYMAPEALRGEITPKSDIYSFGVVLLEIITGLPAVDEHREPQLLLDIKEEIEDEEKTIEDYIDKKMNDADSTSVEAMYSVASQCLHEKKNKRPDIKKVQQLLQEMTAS

The target of the assay is IRAK4 (Homo sapiens (Human), UniProt Q9NWZ3). Put plainly: IRAK4 Inhibition Assay. It is filed as biochemical. Particulars: ATP 500 μM; IRAK4 0.6 nM. The procedure, abridged:
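Enzyme 0.6 nM, ATP 500 μM, FL-peptide 1.5 μM, DMSO 1.6%; HEPES pH 7.2/MgCl2/Brij 35/DTT buffer. RT, 60 min, EDTA stop. Mobility-shift product/substrate ratio; % inhib vs no-enzyme and vehicle controls.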
In the case of `CC(C)Nc1cc(-n2ncc3cc(C#N)cnc32)ncc1-n1ccc(CC#N)n1` [Example 250, 1-(5-(3-(cyanomethyl)-1H-pyrazol-1-yl)-4-(isopropylamino)pyridin-2-yl)-1H-pyrazolo[3,4-b]pyridine-5-carbonitrile], the pIC50 was 6.71.
`CC(C)Nc1cc(-n2ncc3cc(C#N)cnc32)ncc1-n1cc(CCCN)cn1` [Example 251, 1-(5-(4-(3-aminopropyl)-1H-pyrazol-1-yl)-4-(isopropylamino)pyridin-2-yl)-1H-pyrazolo[3,4-b]pyridine-5-carbonitrile]: the pIC50 was 7.41.
The same measure for `CC(C)Nc1cc(-n2ncc3cc(C#N)cnc32)ncc1-c1cnn(CCO)c1` [Example 252, 1-(5-(1-(2-hydroxyethyl)-1H-pyrazol-4-yl)-4-(isopropylamino)pyridin-2-yl)-1H-pyrazolo[3,4-b]pyridine-5-carbonitrile]: 6.92; for `CCn1cc(-c2cnc(-n3ncc4cc(C#N)cnc43)cc2NC(C)C)cn1` [Example 253, 1-(5-(1-ethyl-1H-pyrazol-4-yl)-4-(isopropylamino)pyridin-2-yl)-1H-pyrazolo[3,4-b]pyridine-5-carbonitrile]: 7.19; for `CC(C)Nc1cc(-n2ncc3cc(C#N)cnc32)ncc1-c1cnn(CC2COC2)c1` [Example 254, 1-(4-(isopropylamino)-5-(1-(oxetan-3-ylmethyl)-1H-pyrazol-4-yl)pyridin-2-yl)-1H-pyrazolo[3,4-b]pyridine-5-carbonitrile]: 6.72.
For `CC(C)Nc1cc(-n2ncc3cc(C#N)cnc32)ncc1-c1cnn(CC(F)(F)F)c1` [Example 255, 1-(4-(isopropylamino)-5-(1-(2,2,2-trifluoroethyl)-1H-pyrazol-4-yl)pyridin-2-yl)-1H-pyrazolo[3,4-b]pyridine-5-carbonitrile] the value was 7.41; for `CC(C)Nc1cc(-n2ncc3cc(C#N)cnc32)ncc1-c1cnn(C2CCOCC2)c1` [Example 257, 1-(4-(isopropylamino)-5-(1-(tetrahydro-2H-pyran-4-yl)-1H-pyrazol-4-yl)pyridin-2-yl)-1H-pyrazolo[3,4-b]pyridine-5-carbonitrile], 7.70; for `CC(C)Nc1cc(-n2ncc3cc(C#N)cnc32)ncc1-c1cnn(C2CC2)c1` [Example 259, 1-(5-(1-cyclopropyl-1H-pyrazol-4-yl)-4-(isopropylamino)pyridin-2-yl)-1H-pyrazolo[3,4-b]pyridine-5-carbonitrile], 6.82.
For the compound `CC(C)Nc1cc(-n2ncc3cc(C#N)cnc32)ncc1-c1cnn(C(F)F)c1` [Example 260, 1-(5-(1-(difluoromethyl)-1H-pyrazol-4-yl)-4-(isopropylamino)pyridin-2-yl)-1H-pyrazolo[3,4-b]pyridine-5-carbonitrile], the pIC50 was 6.84.
`CCCn1cc(-c2cnc(-n3ncc4cc(C#N)cnc43)cc2NC(C)C)cn1` [Example 261, 1-(4-(isopropylamino)-5-(1-propyl-1H-pyrazol-4-yl)pyridin-2-yl)-1H-pyrazolo[3,4-b]pyridine-5-carbonitrile]: the pIC50 is 7.54.
Turning to `CC(C)Nc1cc(-n2ncc3cncnc32)ncc1-c1cnn(CC(F)(F)F)c1` [Example 262, N-isopropyl-2-(1H-pyrazolo[3,4-d]pyrimidin-1-yl)-5-(1-(2,2,2-trifluoroethyl)-1H-pyrazol-4-yl)pyridin-4-amine], the pIC50 was 6.54.
Take `COCc1cn(-c2cnc(-n3ncc4cc(C#N)cnc43)cc2NC(C)C)nn1` [Example 267, 1-(4-(isopropylamino)-5-(4-(methoxymethyl)-1H-1,2,3-triazol-1-yl)pyridin-2-yl)-1H-pyrazolo [3,4-b]pyridine-5-carbonitrile]: the pIC50 was 7.08.
Take `CC(O)Cc1cn(-c2cnc(-n3ncc4cc(C#N)cnc43)cc2NC(C)C)nn1` (stereo not shown) [Example 268, 1-(5-(4-(2-hydroxypropyl)-1H-1,2,3-triazol-1-yl)-4-(isopropylamino)pyridin-2-yl)-1H-pyrazolo[3,4-b]pyridine-5-carbonitrile]: the pIC50 is 7.42.
